Experimental data as given in the supplement of paper PMC10307832.

Columns and labels:
Assay in all cases: relative viability (nuclei count vs DMSO), 5 days (fraction); higher = more cells survive
XMD14-99 + Phenformin = compound: CN1CCN(CC1)C2=CC(=C(C=C2)NC3=NC(=C(S3)C(=O)C4=C(C=CC=C4Cl)Cl)N)OC [XMD14-99] + N=C(N)NC(=N)NCCc1ccccc1 [Phenformin] (partner 250 µM)
Summary of the method: (§1)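 Medians of duplicate plates are given as relative viability. That measure is the nuclei count in treated wells divided by the count in vehicle wells. Counts were taken on 4× images of lung cancer cell lines in 1536-well plates, 5 days after pin-tool dosing the day after seeding with one drug alone or a fixed anchor-drug dose plus five library-drug doses (not always all listed) in √10 steps.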

AZD1208 + Trametinib = compound: N[C@@H]1CCCN(c2c(/C=C3\SC(=O)NC3=O)cccc2-c2ccccc2)C1 [AZD1208] + CC(=O)Nc1cccc(-n2c(=O)n(C3CC3)c(=O)c3c(Nc4ccc(I)cc4F)n(C)c(=O)c(C)c32)c1 [Trametinib] (partner 0.02 µM)
Summary of the method: as §1

AZD1208 + Pictilisib = compound: N[C@@H]1CCCN(c2c(/C=C3\SC(=O)NC3=O)cccc2-c2ccccc2)C1 [AZD1208] + CS(=O)(=O)N1CCN(Cc2cc3nc(-c4cccc5[nH]ncc45)nc(N4CCOCC4)c3s2)CC1 [Pictilisib] (partner 1 µM)
Summary of the method: as §1

AZD1208 + Vorinostat = compound: N[C@@H]1CCCN(c2c(/C=C3\SC(=O)NC3=O)cccc2-c2ccccc2)C1 [AZD1208] + O=C(CCCCCCC(=O)Nc1ccccc1)NO [Vorinostat] (partner 1 µM)
Summary of the method: as §1

Row | Cell Line | relative viability (XMD14-99 + Phenformin; first compound 0.08 µM) | relative viability (XMD14-99 + Phenformin; first compound 0.8 µM) | relative viability (XMD14-99 + Phenformin; first compound 2.53 µM) | relative viability (XMD14-99 + Phenformin; first compound 8 µM) | relative viability (AZD1208 + Trametinib; first compound 0.08 µM) | relative viability (AZD1208 + Trametinib; first compound 0.253 µM) | relative viability (AZD1208 + Trametinib; first compound 0.8 µM) | relative viability (AZD1208 + Trametinib; first compound 2.53 µM) | relative viability (AZD1208 + Trametinib; first compound 8 µM) | relative viability (AZD1208 + Pictilisib; first compound 0.08 µM) | relative viability (AZD1208 + Pictilisib; first compound 0.253 µM) | relative viability (AZD1208 + Pictilisib; first compound 0.8 µM) | relative viability (AZD1208 + Pictilisib; first compound 2.53 µM) | relative viability (AZD1208 + Pictilisib; first compound 8 µM) | relative viability (AZD1208 + Vorinostat; first compound 0.08 µM) | relative viability (AZD1208 + Vorinostat; first compound 0.253 µM) | relative viability (AZD1208 + Vorinostat; first compound 0.8 µM) | relative viability (AZD1208 + Vorinostat; first compound 2.53 µM) | relative viability (AZD1208 + Vorinostat; first compound 8 µM)
1 | NCI-H358 | 0.306 | 0.354 | 0.267 | 0.217 | 0.118 | 0.109 | 0.12 | 0.12 | 0.102 | 0.35 | 0.284 | 0.333 | 0.299 | 0.283 | 0.719 | 0.646 | 0.576 | 0.678 | 0.618
2 | NCI-H441 | 0.889 | 0.811 | 0.738 | 0.662 | 0.515 | 0.547 | 0.327 | 0.405 | 0.446 | 0.343 | 0.427 | 0.34 | 0.314 | 0.305 | 0.742 | 0.757 | 0.62 | 0.616 | 0.711
3 | NCI-H460 | 0.517 | 0.498 | 0.431 | 0.325 | 0.137 | 0.189 | 0.138 | 0.109 | 0.124 | 0.341 | 0.322 | 0.289 | 0.308 | 0.37 | 0.731 | 0.858 | 0.732 | 0.708 | 0.737
4 | NCI-H520 | 0.603 | 0.526 | 0.498 | 0.361 | 0.633 | 0.678 | 0.279 | 0.55 | 0.502 | 0.238 | 0.278 | 0.201 | 0.185 | 0.184 | 0.735 | 0.73 | 0.711 | 0.768 | 0.449
5 | NCI-H596 | 0.799 | 0.883 | 0.733 | 0.784 | 0.759 | 0.905 | 0.79 | 0.654 | 0.446 | 0.388 | 0.349 | 0.366 | 0.348 | 0.328 | 0.628 | 0.632 | 0.558 | 0.661 | 0.48
6 | NCI-H647 | 0.526 | 0.494 | 0.6 | 0.489 | 0.383 | 0.503 | 0.567 | 0.471 | 0.358 | 0.463 | 0.371 | 0.37 | 0.339 | 0.364 | 0.521 | 0.701 | 0.643 | 0.428 | 0.256
7 | NCI-H650 | 0.497 | 0.465 | 0.423 | 0.364 | 0.852 | 0.904 | 1.1 | 0.93 | 0.743 | 0.83 | 0.783 | 0.793 | 0.589 | 0.589 | 0.436 | 0.379 | 0.47 | 0.414 | 0.351
8 | NCI-H661 | 0.292 | 0.272 | 0.263 | 0.296 | 0.549 | 0.565 | 0.544 | 0.543 | 0.514 | 0.417 | 0.391 | 0.34 | 0.342 | 0.355 | 0.796 | 0.775 | 0.827 | 0.82 | 0.917
9 | NCI-H727 | 0.423 | 0.43 | 0.419 | 0.374 | 0.413 | 0.325 | 0.352 | 0.395 | 0.39 | 0.355 | 0.297 | 0.262 | 0.264 | 0.355 | 0.925 | 1.14 | 1.11 | 1.11 | 1.03
10 | NCI-H838 | 0.612 | 0.556 | 0.474 | 0.383 | 0.482 | 0.629 | 0.448 | 0.476 | 0.457 | 0.374 | 0.427 | 0.343 | 0.378 | 0.366 | 0.679 | 0.661 | 0.639 | 0.682 | 0.689
11 | NCI-H1355 | 0.518 | 0.473 | 0.424 | 0.36 | 0.429 | 0.391 | 0.416 | 0.401 | 0.366 | 0.419 | 0.39 | 0.35 | 0.349 | 0.306 | 0.638 | 0.672 | 0.558 | 0.603 | 0.544
12 | NCI-H1395 | 0.471 | 0.458 | 0.404 | 0.438 | 1.03 | 1.08 | 0.932 | 1.01 | 0.878 | 0.694 | 0.618 | 0.553 | 0.554 | 0.644 | 0.974 | 0.731 | 0.632 | 0.698 | 0.546
13 | NCI-H1437 | 0.321 | 0.316 | 0.244 | 0.237 | 0.423 | 0.597 | 0.358 | 0.419 | 0.408 | 0.369 | 0.388 | 0.271 | 0.246 | 0.247 | 0.805 | 0.93 | 0.933 | 1 | 0.857
14 | NCI-H1650 | 0.375 | 0.498 | 0.361 | 0.312 | 0.575 | 0.667 | 0.536 | 0.517 | 0.537 | 0.529 | 0.575 | 0.434 | 0.395 | 0.41 | 0.635 | 0.464 | 0.643 | 0.588 | 0.472
15 | NCI-H1651 | 0.321 | 0.319 | 0.301 | 0.272 | 0.87 | 0.81 |  | 0.742 | 0.746 | 0.395 | 0.556 | 0.394 | 0.38 | 0.408 | 0.583 | 0.602 |  | 0.561 | 0.556
16 | NCI-H1666 | 0.567 | 0.553 | 0.494 | 0.533 | 0.764 | 0.907 | 0.687 | 0.667 | 0.725 | 0.359 | 0.553 | 0.353 | 0.309 | 0.374 | 1.06 | 1.02 | 0.887 | 0.966 | 0.908
17 | NCI-H1734 | 0.348 | 0.376 | 0.368 | 0.381 | 0.659 | 0.583 | 0.535 | 0.525 | 0.434 | 0.393 | 0.373 | 0.347 | 0.343 | 0.293 | 0.731 | 0.739 | 0.756 | 0.663 | 0.599
